In patent US8735439B2, “Chlorin e6-folic acid conjugate, preparation method thereof, and a pharmaceutical composition for the treatment of cancer comprising the same” (Diatech Korea Co., Ltd., priority 2009, dated 2014):
Where “and” joins values, the source holds several entries; their conditions need not be identical. Equal values may be shown once.

Tests used:
sarcoma M-1 [1] = test: Growth of sarcoma M-1 after PDT (tumor volume); type: in vivo, rats
Protocol: (§1) For this purpose, a laser medical instrument “ ? 680-2000” (BIOSPEC, Moscow) was used to perform the exposure at a wavelength of 670 nm in a dose of 100 J/cm^2. The power density was 0.51 W/cm^2, the output power was 0.4 W, and the spot light diameter was 1 cm. Time of exposure was […]. Monitoring over radiating power was conducted by a universal power meter included in the laser device “ ? 4680-2000”.

[2] = Photophysical parameters (triplet state, intercombinative conversion) of chlorin e6 conjugate; type: physicochemical
Protocol: Values of Δ ? and Δ ? were determined after substantially transferring of all molecules of the studied substance in excited triplet state. In such conditions, ΔD=CΔεTl, wherein C indicates the molar concentration of the substance in solution, and l indicates the length of the optical way. As the standard to estimate γ, Pd(II)-octa ethyl porphyrin (Pd (II)-OEP) was selected, for which the γ value in benzol was considered as equal to one.

sarcoma M-1 [3] = test: Necrotic area in sarcoma M-1 after PDT; type: in vivo, rats; details: for Necrotic area / Ratio of necrotic area to total area: PDT 100 J/cm^2 at 4 hours, mean of 25 slides
Protocol: 2 hours later the animals were killed by chloroform, the tumor was excised and fixed for one hour in 10%-HOM formalin. After fixation, transverse sections of the tumor nodule in its highest diameter were made, and pictures were taken by a camera connected to a computer.
For quantitative assessment of necroses formed after PDT, computer analysis of color tints of histo-topographic tumor slides was performed using a special program.
The program included an algorithm of blue color identification (Evans blue), which stained viable areas of the tumor. Tumor areas killed from direct cytotoxic effect or due to structural-functional disorders of microcirculation were not stained in blue. The ratio of all non-stained dots to the total amount of dots in the fence of the tumor slide was considered to be the destruction efficiency.
as §1

human serum albumin = human serum albumin (Homo sapiens, UniProt P02768); test: Pigment-protein complex formation with human serum albumin; details: HSA, number of binding positions n=1
Sequence of human serum albumin (P02768 25-609): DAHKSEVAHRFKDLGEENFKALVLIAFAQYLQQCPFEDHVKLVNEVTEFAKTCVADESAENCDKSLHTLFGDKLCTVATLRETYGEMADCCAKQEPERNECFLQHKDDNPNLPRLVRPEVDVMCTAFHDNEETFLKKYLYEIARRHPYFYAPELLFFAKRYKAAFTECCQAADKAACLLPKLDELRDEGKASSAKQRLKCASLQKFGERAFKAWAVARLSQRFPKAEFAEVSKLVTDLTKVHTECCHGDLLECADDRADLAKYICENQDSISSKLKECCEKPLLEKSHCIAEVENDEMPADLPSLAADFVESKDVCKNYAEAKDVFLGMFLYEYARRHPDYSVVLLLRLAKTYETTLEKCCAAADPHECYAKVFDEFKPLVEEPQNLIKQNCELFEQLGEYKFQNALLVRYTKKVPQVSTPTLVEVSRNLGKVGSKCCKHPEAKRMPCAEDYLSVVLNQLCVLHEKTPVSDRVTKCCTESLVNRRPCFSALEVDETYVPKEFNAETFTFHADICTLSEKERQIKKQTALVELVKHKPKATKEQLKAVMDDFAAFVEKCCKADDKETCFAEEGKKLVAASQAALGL
From the text: Pigment-protein complexes have been formed by adding to the solution of human serum albumin (HAS) a specific amount of photosensitizer dissolved in the same buffer. […] Similarly, the photosensitizer was included in detergent micelle (Triton X-100, C=10^−3M).
wherein r and C are the respectively concentrations of bound and unbound protein pigment, r+C=CΣ. […] It is also applicable with respect to pigment molecules included in Triton X-100 micelle.

[4] = Generation of singlet oxygen (luminescence at 1270 nm); type: physicochemical
Protocol: Photoresponse of this process (φΔ) was measured by a relative method through integral intensity of singlet oxygen luminescence at a wavelength of 1270 nm. Excitation was conducted at a wavelength of 531 nm (pulse energy 4 microJ, frequency 1 kHz). Tests were made in air saturated buffer solutions at room temperature. […] The φΔ in D2O was considered as 0.7.
To analyze kinetic curves of singlet oxygen luminescence, the following function was used:
wherein A is a coefficient depending on initial concentrations of interacted reagents, and k1 and k2 are constants of luminescence signal increase and extinction, respectively.
In the case when the deactivation rate constant Kτ of the photosensitizer triplet state exceeds the deactivation rate constant KΔ of the molecular oxygen […] state, the constant of increase k1 corresponds to Kτ, and constant of extinction k2 corresponds to KΔ. In the case of Kτ<KΔ, inversion of the kinetics of singlet oxygen luminescence occurs. In this case, k2=Kτ and k1=KΔ. […] Thus, based on kinetic data, the life times of singlet oxygen and triplet state can be calculated.

[5] = air saturated buffer solution, room temperature

Substance: [γ-(6-aminohexyl)folic acid]-chlorin e6 [chlorin e6 conjugate]
- Growth inhibition rate of sarcoma M-1 in volume to the control (sarcoma M-1 [1]; 2.5 mg/100 g + 100 J/cm^2 for 1 h, day 7): 47.5%
- Growth inhibition rate of sarcoma M-1 in volume to the control (sarcoma M-1 [1]; 2.5 mg/100 g + 100 J/cm^2 for 1 h, day 10): 79.4%
- Growth inhibition rate of sarcoma M-1 in volume to the control (sarcoma M-1 [1]; 2.5 mg/100 g + 100 J/cm^2 for 1 h, day 12): 87.6%
- Growth inhibition rate of sarcoma M-1 in volume to the control (sarcoma M-1 [1]; 2.5 mg/100 g + 100 J/cm^2 for 1 h, day 14): 89.8%
- Growth inhibition rate of sarcoma M-1 in volume to the control (sarcoma M-1 [1]; 2.5 mg/100 g + 100 J/cm^2 for 1 h, day 17): 94.8%
- Growth inhibition rate of sarcoma M-1 in volume to the control (sarcoma M-1 [1]; 2.5 mg/100 g + 100 J/cm^2 for 1 h, day 19): 94.1%
- Growth inhibition rate of sarcoma M-1 in volume to the control (sarcoma M-1 [1]; 2.5 mg/100 g + 100 J/cm^2 for 1 h, day 21): 94.2%
- Growth inhibition rate of sarcoma M-1 in volume to the control (sarcoma M-1 [1]; 2.5 mg/100 g + 100 J/cm^2 for 1 h, day 24): 93.6%
- volume of sarcoma M-1 (sarcoma M-1 [1]; 2.5 mg/kg + 100 J/cm^2 for 1 h, day 7 after tumor transplant): 0.25 ± 0.03 cm^3
- volume of sarcoma M-1 (sarcoma M-1 [1]; 2.5 mg/kg + 100 J/cm^2 for 1 h, day 10): 0.28 ± 0.03 cm^3
- volume of sarcoma M-1 (sarcoma M-1 [1]; 2.5 mg/kg + 100 J/cm^2 for 1 h, day 12): 0.34 ± 0.06 cm^3
- volume of sarcoma M-1 (sarcoma M-1 [1]; 2.5 mg/kg + 100 J/cm^2 for 1 h, day 14): 0.41 ± 0.09 cm^3
- volume of sarcoma M-1 (sarcoma M-1 [1]; 2.5 mg/kg + 100 J/cm^2 for 1 h, day 17): 0.46 ± 0.11 cm^3
- volume of sarcoma M-1 (sarcoma M-1 [1]; 2.5 mg/kg + 100 J/cm^2 for 1 h, day 19): 0.69 ± 0.27 cm^3
- volume of sarcoma M-1 (sarcoma M-1 [1]; 2.5 mg/kg + 100 J/cm^2 for 1 h, day 21): 0.96 ± 0.38 cm^3
- volume of sarcoma M-1 (sarcoma M-1 [1]; 2.5 mg/kg + 100 J/cm^2 for 1 h, day 24): 1.19 ± 0.48 cm^3
- Growth inhibition rate of sarcoma M-1 in volume to the control (sarcoma M-1 [1]; 5 mg/100 g + 100 J/cm^2 for 1 h, day 7): 36.9%
- Growth inhibition rate of sarcoma M-1 in volume to the control (sarcoma M-1 [1]; 5 mg/100 g + 100 J/cm^2 for 1 h, day 10): 77.9%
- Growth inhibition rate of sarcoma M-1 in volume to the control (sarcoma M-1 [1]; 5 mg/100 g + 100 J/cm^2 for 1 h, day 12): 89.1%
- Growth inhibition rate of sarcoma M-1 in volume to the control (sarcoma M-1 [1]; 5 mg/100 g + 100 J/cm^2 for 1 h, day 14): 92.6%
- Growth inhibition rate of sarcoma M-1 in volume to the control (sarcoma M-1 [1]; 5 mg/100 g + 100 J/cm^2 for 1 h, day 17): 95.8%
- Growth inhibition rate of sarcoma M-1 in volume to the control (sarcoma M-1 [1]; 5 mg/100 g + 100 J/cm^2 for 1 h, day 19): 95.9%
- Growth inhibition rate of sarcoma M-1 in volume to the control (sarcoma M-1 [1]; 5 mg/100 g + 100 J/cm^2 for 1 h, day 21): 96.9%
- Growth inhibition rate of sarcoma M-1 in volume to the control (sarcoma M-1 [1]; 5 mg/100 g + 100 J/cm^2 for 1 h, day 24): 97.1%
- volume of sarcoma M-1 (sarcoma M-1 [1]; 5 mg/kg + 100 J/cm^2 for 1 h, day 7 after tumor transplant): 0.29 ± 0.02 cm^3
- volume of sarcoma M-1 (sarcoma M-1 [1]; 5 mg/kg + 100 J/cm^2 for 1 h, day 10): 0.300 ± .03 cm^3
- volume of sarcoma M-1 (sarcoma M-1 [1]; 5 mg/kg + 100 J/cm^2 for 1 h, day 12): 0.30 ± 0.03 cm^3
- volume of sarcoma M-1 (sarcoma M-1 [1]; 5 mg/kg + 100 J/cm^2 for 1 h, day 14): 0.30 ± 0.03 cm^3
- volume of sarcoma M-1 (sarcoma M-1 [1]; 5 mg/kg + 100 J/cm^2 for 1 h, day 17): 0.37 ± 0.05 cm^3
- volume of sarcoma M-1 (sarcoma M-1 [1]; 5 mg/kg + 100 J/cm^2 for 1 h, day 19): 0.47 ± 0.11 cm^3
- volume of sarcoma M-1 (sarcoma M-1 [1]; 5 mg/kg + 100 J/cm^2 for 1 h, day 21): 0.50 ± 0.14 cm^3
- volume of sarcoma M-1 (sarcoma M-1 [1]; 5 mg/kg + 100 J/cm^2 for 1 h, day 24): 0.54 ± 0.17 cm^3
- Growth inhibition rate of sarcoma M-1 in volume to the control (sarcoma M-1 [1]; 10 mg/100 g + 100 J/cm^2 for 1 h, day 7): 56.5%
- Growth inhibition rate of sarcoma M-1 in volume to the control (sarcoma M-1 [1]; 10 mg/100 g + 100 J/cm^2 for 1 h, day 10): 86.0%
- Growth inhibition rate of sarcoma M-1 in volume to the control (sarcoma M-1 [1]; 10 mg/100 g + 100 J/cm^2 for 1 h, day 12): 93.8%
- Growth inhibition rate of sarcoma M-1 in volume to the control (sarcoma M-1 [1]; 10 mg/100 g + 100 J/cm^2 for 1 h, day 14): 95.8%
- Growth inhibition rate of sarcoma M-1 in volume to the control (sarcoma M-1 [1]; 10 mg/100 g + 100 J/cm^2 for 1 h, day 17): 98.1%
- Growth inhibition rate of sarcoma M-1 in volume to the control (sarcoma M-1 [1]; 10 mg/100 g + 100 J/cm^2 for 1 h, day 19): 95.2%
- Growth inhibition rate of sarcoma M-1 in volume to the control (sarcoma M-1 [1]; 10 mg/100 g + 100 J/cm^2 for 1 h, day 21): 98.8%
- Growth inhibition rate of sarcoma M-1 in volume to the control (sarcoma M-1 [1]; 10 mg/100 g + 100 J/cm^2 for 1 h, day 24): 98.9%
- volume of sarcoma M-1 (sarcoma M-1 [1]; 10 mg/kg + 100 J/cm^2 for 1 h, day 7 after tumor transplant): 0.20 ± 0.03 cm^3
- volume of sarcoma M-1 (sarcoma M-1 [1]; 10 mg/kg + 100 J/cm^2 for 1 h, day 10): 0.19 ± 0.04 cm^3
- volume of sarcoma M-1 (sarcoma M-1 [1]; 10 mg/kg + 100 J/cm^2 for 1 h, day 12): 0.17 ± 0.03 cm^3
- volume of sarcoma M-1 (sarcoma M-1 [1]; 10 mg/kg + 100 J/cm^2 for 1 h, day 14): 0.17 ± 0.03 cm^3
- volume of sarcoma M-1 (sarcoma M-1 [1]; 10 mg/kg + 100 J/cm^2 for 1 h, day 17): 0.17 ± 0.03 cm^3
- volume of sarcoma M-1 (sarcoma M-1 [1]; 10 mg/kg + 100 J/cm^2 for 1 h, day 19): 0.17 ± 0.03 cm^3
- volume of sarcoma M-1 (sarcoma M-1 [1]; 10 mg/kg + 100 J/cm^2 for 1 h, day 21): 0.20 ± 0.03 cm^3
- volume of sarcoma M-1 (sarcoma M-1 [1]; 10 mg/kg + 100 J/cm^2 for 1 h, day 24): 0.20 ± 0.03 cm^3
- inhibition rate of tumor volumetric growth compared to the control (sarcoma M-1 [1]; rats with sarcoma M-1, monitored for 24 days after PDT): 86.34-99.1%
- Δε^T ([2]; H2O, pH 8.1): 278 dm^3 mol^−1 cm^−1
- γ (photoresponse of intercombinative conversion) ([2]; H2O, pH 8.1): 0.8
- τt (triplet lifetime, oxygen saturated) ([2]; H2O, pH 8.1): 2.5 μs
- τt^0 (triplet lifetime, deoxygenated) ([2]; H2O, pH 8.1): 170 μs
- Δε^T ([2]; HSA, H2O, pH 8.1): 798 dm^3 mol^−1 cm^−1
- γ (photoresponse of intercombinative conversion) ([2]; HSA, H2O, pH 8.1): 0.82
- τt (triplet lifetime, oxygen saturated) ([2]; HSA, H2O, pH 8.1): 14.7 μs
- τt^0 (triplet lifetime, deoxygenated) ([2]; HSA, H2O, pH 8.1): 700 μs
- Δε^T ([2]; Liposomes, H2O, pH 8.1): 251 dm^3 mol^−1 cm^−1
- γ (photoresponse of intercombinative conversion) ([2]; Liposomes, H2O, pH 8.1): 0.78
- τt (triplet lifetime, oxygen saturated) ([2]; Liposomes, H2O, pH 8.1): 1.4 μs
- τt^0 (triplet lifetime, deoxygenated) ([2]; Liposomes, H2O, pH 8.1): 70 μs
- Δε^T ([2]; Pyridine): 94 dm^3 mol^−1 cm^−1
- γ (photoresponse of intercombinative conversion) ([2]; Pyridine): 0.81
- τt (triplet lifetime, oxygen saturated) ([2]; Pyridine): 0.3 μs
- τt^0 (triplet lifetime, deoxygenated) ([2]; Pyridine): 140 μs
- τt (triplet lifetime, oxygen saturated) ([2]; Triton X-100): 2.6 μs
- τt^0 (triplet lifetime, deoxygenated) ([2]; Triton X-100): 230 μs
- γ (photoresponse of intercombinative conversion) ([2]; practically similar in all the systems): ≈ 0.7
- Necrotic area (sarcoma M-1 [3]; 2.5 mg/kg): 0.637 cm^2
- Ratio of necrotic area to total area (sarcoma M-1 [3]; 2.5 mg/kg): 25.56±1.65% and 25.56%
- Necrotic area (sarcoma M-1 [3]; 5.0 mg/kg): 0.741 cm^2
- Ratio of necrotic area to total area (sarcoma M-1 [3]; 5.0 mg/kg): 34.16±2.16% and 34.16%
- anti-tumor effect compared among dose and exposure groups (sarcoma M-1 [3]; 10.0 mg/kg, 1 hr exposure): most prominent anti-tumor effect
- Necrotic area (sarcoma M-1 [3]; 10.0 mg/kg): 1.205 cm^2
- Ratio of necrotic area to total area (sarcoma M-1 [3]; 10.0 mg/kg): 66.16±3.83% and 66.16%
- Ratio of necrotic area to total area (sarcoma M-1 [3]; 10.0 mg/kg, listed as chlorin e6-folic acid conjugate): 66.16%
- binding constant κCB with protein (human serum albumin): 1.2e+06 M⁻¹
- φΔ (efficiency of ^1O2 generation) ([4]; H2O, pH 8.1): 0.70
- φΔ (efficiency of ^1O2 generation) ([4]; HSA, H2O, pH 8.1): 0.63-
- φΔ (efficiency of ^1O2 generation) ([4]; Pyridine): 0.68
- φΔ (efficiency of ^1O2 generation) ([4]; Triton X-100): 0.80
- τt (life time of triplet state) from kinetic curves of singlet oxygen luminescence [4, 5]: 2.0±0.2 microsec.
- τΔ (life time of singlet oxygen) from kinetic curves of singlet oxygen luminescence [4, 5]: 3.6±0.2 microsec.
- photoresponse of photosensitized formation of singlet oxygen ([4]; pH 6.0): 0.52
- photoresponse of photosensitized formation of singlet oxygen ([4]; pH 8.1): 0.7
